Laboratory results from PMC3140512, “Identification of Toxoplasma gondii cAMP Dependent Protein Kinase and Its Role in the Tachyzoite Growth” (PLoS ONE, 2011).

Molecular target: T1, TgPKA-C (T. gondii PKA catalytic subunit; ToxoDB TGGT1_081170) (Toxoplasma gondii, UniProt Q58G65)
T1 construct: gene PKA2; entire ORF (343 amino acid residues), GST fusion, wheat germ cell-free expression
Experiment: in vitro radiometric kinase assay ([γ-32P]ATP, Histone IIAS substrate) with purified GST-TgPKA-C
Format: biochemical

T1 sequence (Q58G65 entry or part of it): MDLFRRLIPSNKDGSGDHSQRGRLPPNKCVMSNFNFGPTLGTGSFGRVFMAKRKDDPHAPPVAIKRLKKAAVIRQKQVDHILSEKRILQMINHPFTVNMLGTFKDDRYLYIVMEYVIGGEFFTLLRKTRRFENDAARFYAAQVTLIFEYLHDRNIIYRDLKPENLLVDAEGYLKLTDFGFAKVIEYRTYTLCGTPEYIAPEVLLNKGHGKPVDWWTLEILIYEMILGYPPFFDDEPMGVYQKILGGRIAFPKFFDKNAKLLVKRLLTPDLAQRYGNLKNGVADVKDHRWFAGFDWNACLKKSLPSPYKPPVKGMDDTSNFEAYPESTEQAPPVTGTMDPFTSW

For `O=S(=O)(NCCNC/C=C/c1ccc(Br)cc1)c1cccc2cnccc12` [H89, N-[2-(p-bromocinnamylamino)ethyl]-5-isoquinolinesulfonamide], the IC50 was 175 µM.
